Results from PubChem BioAssay AID248 (DTP/NCI, 2004).
“And” between values parts separate entries of the source, which are not always exact repeats. Equal values may be shown once. Toxic doses and inconclusive results are not listed. Rule as the data show it: active = T/C of 150% or more; inactive = T/C below 125%.

System: L1210 leukemia ip in BDF1 mice, survival T/C
Test: NCI In Vivo Anticancer Drug Screen. Data for tumor model L1210 Leukemia (intraperitoneal) in B6D2F1 (BDF1) mice
Conditions: endpoint: mean survival time, higher = longer survival
Method in brief: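 Read-out is survival time, reported as the treated-group measurement over the vehicle-control measurement.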

[1] = dose: 50.0 mg/kg/injection, schedule: Q01DX009 (ip), vehicle: saline
[2] = dose: 100.0 mg/kg/injection, schedule: Q04DX003 (ip), vehicle: saline
[3] = dose: 200.0 mg/kg/injection, schedule: Q04DX003 (ip), vehicle: saline
[4] = dose: 100.0 mg/kg/injection, schedule: Q04DX003 (ip), vehicle: saline with Tween-80
[5] = dose: 200.0 mg/kg/injection, schedule: Q04DX003 (ip), vehicle: saline with Tween-80
[6] = dose: 400.0 mg/kg/injection, schedule: Q04DX003 (ip), vehicle: saline with Tween-80
[7] = dose: 100.0 mg/kg/injection, schedule: Q01DX001 (ip), vehicle: saline
[8] = dose: 200.0 mg/kg/injection, schedule: Q01DX001 (ip), vehicle: saline
[9] = dose: 400.0 mg/kg/injection, schedule: Q04DX003 (ip), vehicle: saline
[10] = dose: 100.0 mg/kg/injection, schedule: Q04DX002 (ip), vehicle: Klucel (hydroxypropylcellulose) (HPC)
[11] = dose: 200.0 mg/kg/injection, schedule: Q04DX002 (ip), vehicle: Klucel (hydroxypropylcellulose) (HPC)
[12] = dose: 400.0 mg/kg/injection, schedule: Q04DX002 (ip), vehicle: Klucel (hydroxypropylcellulose) (HPC)

Measured: T/C

CC(=O)C12OC1(C)CC1C3CC=C4CC(O)CCC4(C)C3CCC12C (centres undefined)
inactive: dose: 100.0 mg/kg/injection, schedule: Q01DX009 (sc), vehicle: steriod suspending solution 100 % of control | dose: 100.0 mg/kg/injection, schedule: Q04DX003 (sc), vehicle: steriod suspending solution 108 % of control | dose: 200.0 mg/kg/injection, schedule: Q01DX009 (sc), vehicle: steriod suspending solution 109 % of control | dose: 200.0 mg/kg/injection, schedule: Q04DX003 (sc), vehicle: steriod suspending solution 122 % of control | dose: 400.0 mg/kg/injection, schedule: Q01DX009 (sc), vehicle: steriod suspending solution 98 % of control | dose: 400.0 mg/kg/injection, schedule: Q04DX003 (sc), vehicle: steriod suspending solution 103 % of control

CCN(CC)CCOC(=O)c1ccc(N=C=S)cc1
inactive: dose: 12.5 mg/kg/injection, schedule: Q01DX009 (ip), vehicle: saline 102 % of control | dose: 25.0 mg/kg/injection, schedule: Q01DX009 (ip), vehicle: saline 100 % of control | [1] 96 % of control

Cc1cc2nc(NC(=O)C3CC3)sc2cc1C
inactive: dose: 100.0 mg/kg/injection, schedule: Q01DX009 (ip), vehicle: Klucel (hydroxypropylcellulose) (HPC) 91 % of control | dose: 200.0 mg/kg/injection, schedule: Q01DX009 (ip), vehicle: Klucel (hydroxypropylcellulose) (HPC) 91 % of control

CN1CCC(O)(c2ccccc2)C(/C(=N/O)c2ccccc2)C1 (centres undefined)
inactive: [2] 97 % of control | [3] 90 % of control

Cc1ccc(Cl)cc1NS(=O)(=O)c1ccc(Br)cc1
inactive: dose: 100.0 mg/kg/injection, schedule: Q01DX009 (ip), vehicle: saline with Tween-80 95 % of control | [4] 88 % of control | dose: 200.0 mg/kg/injection, schedule: Q01DX009 (ip), vehicle: saline with Tween-80 90 % of control | [5] 94 % of control | dose: 400.0 mg/kg/injection, schedule: Q01DX009 (ip), vehicle: saline with Tween-80 90 % of control | [6] 94 % of control

O=C1NC(=S)S/C1=C\c1c(Cl)cccc1Cl
inactive: dose: 75.0 mg/kg/injection, schedule: Q01DX001 (ip), vehicle: other 97 % of control

O=C1c2cccc3cc([N+](=O)[O-])cc(c23)C(=O)N1CCCN(CCO)CCO
inactive: dose: 12.5 mg/kg/injection, schedule: Q01DX009 (ip), vehicle: Klucel (hydroxypropylcellulose) (HPC) 104 % of control | dose: 25.0 mg/kg/injection, schedule: Q01DX009 (ip), vehicle: Klucel (hydroxypropylcellulose) (HPC) 105 % of control | dose: 50.0 mg/kg/injection, schedule: Q01DX009 (ip), vehicle: Klucel (hydroxypropylcellulose) (HPC) 91 % of control

c1ccc(CC2(Cc3ccccc3)SCCS2)cc1
inactive: dose: 100.0 mg/kg/injection, schedule: Q04DX003 (ip), vehicle: Klucel (hydroxypropylcellulose) (HPC) 102 % of control | dose: 200.0 mg/kg/injection, schedule: Q04DX003 (ip), vehicle: Klucel (hydroxypropylcellulose) (HPC) 91 % of control | dose: 400.0 mg/kg/injection, schedule: Q04DX003 (ip), vehicle: Klucel (hydroxypropylcellulose) (HPC) 89 % of control

C=COC(=O)N(C)C
inactive: [1] 89 % of control | dose: 50.0 mg/kg/injection, schedule: Q04DX003 (ip), vehicle: acetone 98 % of control | [7] 96 % of control | dose: 100.0 mg/kg/injection, schedule: Q01DX009 (ip), vehicle: saline 94 % of control | dose: 100.0 mg/kg/injection, schedule: Q04DX003 (ip), vehicle: acetone 96 % of control | [8] 107 % of control | dose: 200.0 mg/kg/injection, schedule: Q01DX009 (ip), vehicle: saline 95 % of control | dose: 200.0 mg/kg/injection, schedule: Q04DX003 (ip), vehicle: acetone 95 % of control

O=C1CCCC(=O)NNC(=O)NCCCCCCNC(=O)NN1
inactive: dose: 50.0 mg/kg/injection, schedule: Q01DX001 (ip), vehicle: saline 102 % of control | [7] 87 % of control | [8] 87 % of control | dose: 400.0 mg/kg/injection, schedule: Q01DX001 (ip), vehicle: saline 96 % of control

O=C(Nc1ccc2c(O)cc(S(=O)(=O)O)cc2c1)Nc1ccc2c(O)cc(S(=O)(=O)O)cc2c1
inactive: [2] 96 % of control | [3] 108 % of control | [9] 108 % of control

C[N+](C)(C)CCCOC(=O)C1C2CC3OC(=O)C1C3C2 (centres undefined)
inactive: [2] 101 % of control | [3] 96 % of control

O=C1CC(c2ccccc2)=CN1c1ccc(Cl)cc1
inactive: [10] 89 % of control | [11] 104 % of control | [12] 112 % of control

CCOC(=O)N/N=C/c1ccccc1
inactive: dose: 200.0 mg/kg/injection, schedule: Q01DX001 (ip), vehicle: Klucel (hydroxypropylcellulose) (HPC) 108 % of control | dose: 400.0 mg/kg/injection, schedule: Q01DX001 (ip), vehicle: Klucel (hydroxypropylcellulose) (HPC) 118 % of control

CC(C)C1=CCC(OC(=O)c2ccc(NC(=S)Nc3ccccc3)cc2)CC1 (centres undefined)
inactive: [4] 92 % of control | [5] 96 % of control | [6] 89 % of control

S=c1nc[nH]c2c1ncn2-n1cccc1
inactive: dose: 100.0 mg/kg/injection, schedule: Q01DX001 (ip), vehicle: saline with Tween-80 97 % of control | [4] 103 % of control | dose: 200.0 mg/kg/injection, schedule: Q01DX001 (ip), vehicle: saline with Tween-80 87 % of control | [5] 98 % of control | dose: 400.0 mg/kg/injection, schedule: Q01DX001 (ip), vehicle: saline with Tween-80 92 % of control | [6] 98 % of control

CCOC(C#Cc1ccccc1)OCC
inactive: [2] 105 % of control | [3] 114 % of control | [9] 95 % of control

O=C(CC(O)(C(F)(F)F)C(F)(F)F)CC(O)(C(F)(F)F)C(F)(F)F
inactive: dose: 0.25 mg/kg/injection, schedule: Q01DX009 (ip), vehicle: other 111 % of control | dose: 0.5 mg/kg/injection, schedule: Q01DX009 (ip), vehicle: other 107 % of control and 88 % of control | dose: 1.0 mg/kg/injection, schedule: Q01DX009 (ip), vehicle: other 97 % of control | dose: 1.0 mg/kg/injection, schedule: Q04DX003 (ip), vehicle: other 94 % of control | dose: 1.25 mg/kg/injection, schedule: Q01DX009 (ip), vehicle: saline 95 % of control | dose: 2.0 mg/kg/injection, schedule: Q01DX009 (ip), vehicle: other 108 % of control | dose: 2.0 mg/kg/injection, schedule: Q04DX003 (ip), vehicle: other 87 % of control | dose: 2.5 mg/kg/injection, schedule: Q01DX009 (ip), vehicle: saline with Tween-80 102 % of control | dose: 2.5 mg/kg/injection, schedule: Q01DX009 (ip), vehicle: saline 104 % of control | dose: 3.13 mg/kg/injection, schedule: Q04DX003 (ip), vehicle: other 104 % of control | dose: 5.0 mg/kg/injection, schedule: Q01DX009 (ip), vehicle: saline with Tween-80 97 % of control | dose: 5.0 mg/kg/injection, schedule: Q01DX009 (ip), vehicle: saline 95 % of control

O=c1ccoc(-c2cc(=O)cco2)c1
inactive: dose: 25.0 mg/kg/injection, schedule: Q04DX003 (ip), vehicle: saline with Tween-80 97 % of control | dose: 50.0 mg/kg/injection, schedule: Q04DX003 (ip), vehicle: saline with Tween-80 93 % of control | [4] 95 % of control

O=CC(O)C(O)C(OC1OC(CO)C(O)C(O)C1O)C(O)CO (centres undefined)
inactive: dose: 100.0 mg/kg/injection, schedule: Q04DX002 (ip), vehicle: carboxymethylcellulose (CMC) 93 % of control and 117 % of control | dose: 100.0 mg/kg/injection, schedule: Q04DX003 (ip), vehicle: carboxymethylcellulose (CMC) 99 % of control | dose: 200.0 mg/kg/injection, schedule: Q04DX002 (ip), vehicle: carboxymethylcellulose (CMC) 93 % of control and 92 % of control | dose: 200.0 mg/kg/injection, schedule: Q04DX003 (ip), vehicle: carboxymethylcellulose (CMC) 96 % of control | dose: 400.0 mg/kg/injection, schedule: Q04DX002 (ip), vehicle: carboxymethylcellulose (CMC) 100 % of control and 86 % of control | dose: 400.0 mg/kg/injection, schedule: Q04DX003 (ip), vehicle: carboxymethylcellulose (CMC) 87 % of control

CCOc1ccc(NC(=O)Oc2cc(C)c(Cl)cc2C(C)C)cc1
inactive: [10] 90 % of control | [11] 110 % of control | [12] 100 % of control
